Experimental data reported in patent publication US20140051678A1, “INHIBITORS OF THE ACTIVITY OF COMPLEX III OF THE MITOCHONDRIAL ELECTRON TRANSPORT CHAIN AND USE THEREOF FOR TREATING DISEASES” (STEMERGIE BIOTECHNOLOGY SA, priority 2010, published 2014).
Read-outs that look alike come from different tables or passages of the source.

Columns and labels:
[1] = system: glioma-initiating cells (GICs); assay: Short term dose response on gliomaspheres, cell death by FACS after trypan blue incorporation; format: cell-based, human; settings: 50 μM, 48 hrs
Method: Short term dose response of the compound of Example 4 was performed according to the method as described in the patent application PCT no PCTIB2010/052237 (WO 2010/134039).
Briefly, gliomaspheres were dissociated, counted and plated at 10 cells/μl in DMEM-F12, 2% B27, 1% peni/strep, EGF and bFGF at 1 ng/ml. Cells were then treated with various amount of the compound for 48 hrs and cell death was analysed by FACS after incorporation of trypan blue (1/1000).

U-87 MG cells = assay: MTT cytotoxicity / mitochondrial toxicity assay, glucose vs galactose medium, U-87 MG; format: cell-based, Human; settings: for AC50: Homo sapiens
Method: (§1) Human hepatocellular liver carcinoma cells (HepG2) or Human glioblastoma-astrocytoma, epithelial-like cells (U-87 MG) were plated on 96-well tissue culture treated polystyrene plates at 0.5×10^4 cells in 100 μL of Dulbecco's modified Eagle's medium containing either galactose or glucose supplemented with 10% foetal bovine serum and antibiotics per well. After 24 hr the cells are dosed with test compound at a range of concentrations and incubated for 72 nr. One hour prior to the end of the incubation period, the cells are loaded with MTT [yellow; 3-(4,5-dimethyl-2-thiazolyl)-2,5-diphenyl-2H-tetrazolium bromide], the plates are dried and re-solubilised using DMSO. The plates are then scanned using SpectraFluor Plus (TECAN).
(§2) To measure the relative sensitivity of HepG2 or U-87 MG cells grown in medium containing either galactose or glucose to the test compound.
(§3) Cytotoxicity was assessed using MTT. The assay provides a measurement of mitochondrial dehydrogenase activity and cell loss.
(§4) Cell Loss: A decrease can indicate a loss of cells indicating toxicity due to necrosis, apoptosis or a reduction in cellular proliferation.
(§5) Mitochondrial Activity: A decrease can also indicate an effect on mitochondrial function as mitochondrial dehydrogenases reduce the MTT [yellow; 3-(4,5-dimethyl-2-thiazolyl)-2,5-diphenyl-2H-tetrazolium bromide] to formazan. The formazan is detected in this assay (see assay protocol for details).
(§6) The AC50 is calculated from a four point logistic curve fit to determine percent survival of each test agent and control compound. The fold change is calculated from AC50 curve fit data by comparison with cells grown with glucose or galactose, A greater than 5-fold response in the presence of galactose indicates the compound is considered to be a mitochondrial toxicant.

HepG2 cells = assay: MTT cytotoxicity / mitochondrial toxicity assay, glucose vs galactose medium, HepG2; format: cell-based, Human; settings: for AC50: Homo sapiens
Method: as §1, §2, §3, §4, §5, §6

`O=CNc1cccc(C(=O)NC2CCCCCCCC2)c1O` [Example 4, N-cyclononyl-3-formamido-2-hydroxybenzamide] was tested, and the “fold increase cell death” value [1] was at least 1.2 fold, the “Fold Change (AC50 glucose vs galactose)” value (U-87 MG cells; 72 h) was over 70.1 and the AC50 (U-87 MG cells; galactose medium, 72 h, MTT, read-out: Cell Loss - Galactose AC50) was 1.41 µM. The AC50 (U-87 MG cells; glucose medium, 72 h, MTT, read-out: Cell Loss - Glucose AC50) was over 100 µM, the “Cell Loss - Galactose MEC” value (U-87 MG cells; galactose medium, 72 h, MTT) was 1 µM and the “Cell Loss - Glucose MEC” value (U-87 MG cells; glucose medium, 72 h, MTT) was over 100 µM. The “Mitochondrial Toxicant” value (U-87 MG cells; greater than 5-fold response in galactose = mitochondrial toxicant) was “Yes”, the “Fold Change (AC50 glucose vs galactose)” value (HepG2 cells; HepG2, 72 h) was 9.92 and the “Cell Loss - Galactose MEC” value (HepG2 cells; HepG2, galactose medium, 72 h, MTT) was 4 µM. For the same molecule, the “Cell Loss - Glucose MEC” value (HepG2 cells; HepG2, glucose medium, 72 h, MTT) was 10 µM, the “Mitochondrial Toxicant” value (HepG2 cells; HepG2, greater than 5-fold response in galactose = mitochondrial toxicant) was “Yes” and the AC50 (HepG2 cells; HepG2, galactose medium, 72 h, MTT, read-out: Cell Loss - Galactose AC50) was 2.4 µM. The AC50 (HepG2 cells; HepG2, glucose medium, 72 h, MTT, read-out: Cell Loss - Glucose AC50) was 23.8 µM.
